Source: patent publication US20030187075A1, “Sponge antitumor compounds” (priority 2000, published 2003)
Converted amounts (≈) assume the structure as drawn.

Assays:
Type in all cases: cell-based
HT29 (Human Colon) = experiment: Antitumoral activity, cytotoxicity against HT29; conditions: HT-29; HT29 (Human Colon) cells
A549 (Human Lung) = experiment: Antitumoral activity, cytotoxicity against A549; conditions: A549 (Human Lung) cells
P388 Leukaemia = experiment: Antitumoral activity, cytotoxicity against P388; conditions: Mus musculus; P388 Leukaemia cells
MEL28 (Melanoma) = experiment: Antitumoral activity, cytotoxicity against MEL28; conditions: Homo sapiens, SK-MEL-28; MEL28 (Melanoma) cells

| Structure (SMILES) | IC50 (HT29 (Human Colon)) | IC50 (A549 (Human Lung)) | IC50 (P388 Leukaemia) | IC50 (MEL28 (Melanoma)) |
| --- | --- | --- | --- | --- |
| CC1(C)[C@@H](Cl)CC[C@]2(C)C=C(C=CN=C(Cl)Cl)CC[C@@H]12 [Compound 4] | 1 µg/mL (≈ 2.99 µM) | 1 µg/mL (≈ 2.99 µM) | 1 µg/mL (≈ 2.99 µM) | 1 µg/mL (≈ 2.99 µM) |
| C=C(CC[C@@H]1C(=C)CC[C@H](Cl)C1(C)C)C(Cl)CN=C(Cl)Cl (stereo partly shown) [Compound 1] | 0.1 µg/mL (≈ 0.269 µM) | 0.1 µg/mL (≈ 0.269 µM) | 1 µg/mL (≈ 2.69 µM) | 0.1 µg/mL (≈ 0.269 µM) |
| CC1(C)[C@@H](Cl)[C@@H](O)C[C@]2(C)C/C(=C\C=O)CC[C@@H]12 [Compound 3] | 1 µg/mL (≈ 3.69 µM) | 1 µg/mL (≈ 3.69 µM) | 1 µg/mL (≈ 3.69 µM) | 1 µg/mL (≈ 3.69 µM) |
| CC1(C)[C@@H](Cl)[C@@H](O)C[C@]2(C)C/C(=C/C=O)CC[C@@H]12 [Compound 2] | 1 µg/mL (≈ 3.69 µM) | 1 µg/mL (≈ 3.69 µM) | 1 µg/mL (≈ 3.69 µM) | 1 µg/mL (≈ 3.69 µM) |
